Measurements reported in patent publication US20210290598A1, “MEDICAMENT USEFUL FOR CARDIOVASCULAR DISEASE” (NATIONAL UNIVERSITY CORPORATION OKAYAMA UNIVERSITY, priority 2018, published 2021).

Tests used:
Format in all cases: in vivo, rat
[1] = test system: phosphorylated endothelial nitric oxide synthase (phospho-eNOS); test: Expression level of phospho-eNOS in isolated aortas by Western blotting; settings: 12 weeks dosing
Protocol: (§1) Drug efficacy was evaluated on Dahl salt-sensitive rats (Dahl-Iwai S, 7 weeks old, Japan SLC, Inc.) fed on a 8% salt-containing HFD (High Fat Diet: 29.4% fat content, CLEA Japan, Inc.) (4 groups in total: (1) control group, (2) pemafibrate (0.5 mg/kg/day) single-agent administration group, (3) pitavastatin (0.3 mg/kg/day) single-agent administration group, and (4) pemafibrate (0.5 mg/kg/day)+pitavastatin (0.3 mg/kg/day) combined administration group, with 10 animals for each group). Twelve weeks after the start of administration, the animals were euthanized after measuring their blood pressure, and the weight of the isolated hearts and the endothelial function of the isolated thoracic aortas were measured with a Magnus apparatus. The measurement with the Magnus apparatus was performed according to the standard method. […] Then, acetylcholine (10^−9 to 10^−5 M) was added cumulatively, and the relaxation response was measured. Finally, […] was obtained with 100 μM papaverine, and the relaxation rate was evaluated. When measuring with the Magnus apparatus, the blood vessels of normal rats were also evaluated in addition to the four groups, and were used as a control group. In addition, the expression level of phosphorylated endothelial nitric oxide synthase (phospho-eNOS) was evaluated by Western blotting according to the standard method, using the isolated aortas.

[2] = test system: isolated thoracic aorta of Dahl salt-sensitive rats; test: Endothelial function of isolated thoracic aorta, Magnus apparatus, acetylcholine relaxation response; settings: 12 weeks dosing; aorta ring constricted with 0.3 μM phenylephrine, cumulative acetylcholine; mixed effect model, Bonferroni
Protocol: as §1

[3] = test system: Dahl salt-sensitive rats; test: Blood pressure in Dahl salt-sensitive rats on high-salt high-fat diet; settings: for mean blood pressure: 12 weeks after start, mean±standard deviation, pemafibrate 0.5 mg/kg/day, pitavastatin 0.3 mg/kg/day, salt-containing HFD, control 193.6±6.6; for change in blood pressure compared with control group: 12 weeks, analysis of variance/Bonferroni
Protocol: (§2) Drug efficacy was evaluated on Dahl salt-sensitive rats (Dahl-Iwai S, 7 weeks old, Japan SLC, Inc.) fed on a 8% salt-containing HFD (High Fat Diet: 29.4% fat content, CLEA Japan, Inc.) (4 groups in total: (1) control group, (2) pemafibrate (0.5 mg/kg/day) single-agent administration group, (3) pitavastatin (0.3 mg/kg/day) single-agent administration group, and (4) pemafibrate (0.5 mg/kg/day)+pitavastatin (0.3 mg/kg/day) combined administration group, with 10 animals for each group). Twelve weeks after the start of administration, the animals were euthanized after measuring their blood pressure, and the weight of the isolated hearts and the endothelial function of the isolated thoracic aortas were measured with a Magnus apparatus. The measurement with the Magnus apparatus was performed according to the standard method. That is, a ring preparation of the isolated thoracic aorta was prepared, suspended in a Magnus tube in Krebs-Henseleit solution, loaded with a tension of 1 g, and constricted with 0.3 μM phenylephrine. Then, acetylcholine (10^−9 to 10^−5 M) was added cumulatively, and the relaxation response was measured. Finally, […] was obtained with 100 μM papaverine, and the relaxation rate was evaluated. When measuring with the Magnus apparatus, the blood vessels of normal rats were also evaluated in addition to the four groups, and were used as a control group. In addition, the expression level of phosphorylated endothelial nitric oxide synthase (phospho-eNOS) was evaluated by Western blotting according to the standard method, using the isolated aortas.

[4] = test system: Dahl salt-sensitive rats; test: Weight of isolated hearts of Dahl salt-sensitive rats on high-salt high-fat diet; settings: for heart weight: 12 weeks after start, mean±standard deviation, pemafibrate 0.5 mg/kg/day, pitavastatin 0.3 mg/kg/day, salt-containing HFD, control 1.74±0.1; for change in heart weight compared with control group: 12 weeks, analysis of variance/Bonferroni
Protocol: as §2

| Compound | expression level of phospho-eNOS compared to control group [1] | vasodilatory responsiveness as a whole compared with control group [2] | mean blood pressure [3] [mmHg] | change in blood pressure compared with control group [3] | heart weight [4] [g] | change in heart weight compared with control group [4] |
| --- | --- | --- | --- | --- | --- | --- |
| CC[C@@H](Oc1cccc(CN(CCCOc2ccc(OC)cc2)c2nc3ccccc3o2)c1)C(=O)O [pemafibrate, (2R)-2-[3-({1,3-benzoxazol-2-yl[3-(4-methoxyphenoxy)propyl]amino}methyl)phenoxy]butanoic acid] | tendency to increase | showed a trend toward improvement in vasodilatory responsiveness | 192.6±8.3 | no change was observed | 1.48 ± 0.1 | significantly lower than that of the control |
| O=C(O)C[C@H](O)C[C@H](O)/C=C/c1c(C2CC2)nc2ccccc2c1-c1ccc(F)cc1 [pitavastatin] | tendency to increase | showed a trend toward improvement in vasodilatory responsiveness | 196.9±8.4 | no change was observed | 1.76 ± 0.2 | no change compared to the control |
